Read-outs that look alike come from different tables or passages of the source.
Tests used:
[1] = molecular target: T1, Recombinant STAT3 protein (STAT3 (G127-I722)) (Homo sapiens, UniProt P40763); experiment: STAT3 Fluorescence Polarization (FP) Assay; format: binding; conditions: probe 5-FAM-GpYLPQTV-NH2 2 nM, 45-minute incubation
T1 construct: Recombinant STAT3 protein (STAT3 (G127-I722))
Procedure, shortened: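 Read-out is fluorescence polarization (mP) after 45 min at room temperature, with IC50 fitted by nonlinear regression against log compound concentration. Mixture: 25 nM STAT3 (G127-I722), 2 nM 5-FAM-GpYLPQTV-NH2 phosphopeptide, 10 mM HEPES pH 7.4 buffer, 1% DMSO.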

[2] = molecular target: T2, Recombinant STAT6 protein (STAT6 (W123-T658)) (Homo sapiens, UniProt P42226); experiment: STAT6 Fluorescence Polarization (FP) Assay; format: binding; conditions: probe 5-FAM-Ap[…]-NH2 2 nM, 45-minute incubation
T2 construct: Recombinant STAT6 protein (STAT6 (W123-T658))
T2 sequence (P42226 123-658): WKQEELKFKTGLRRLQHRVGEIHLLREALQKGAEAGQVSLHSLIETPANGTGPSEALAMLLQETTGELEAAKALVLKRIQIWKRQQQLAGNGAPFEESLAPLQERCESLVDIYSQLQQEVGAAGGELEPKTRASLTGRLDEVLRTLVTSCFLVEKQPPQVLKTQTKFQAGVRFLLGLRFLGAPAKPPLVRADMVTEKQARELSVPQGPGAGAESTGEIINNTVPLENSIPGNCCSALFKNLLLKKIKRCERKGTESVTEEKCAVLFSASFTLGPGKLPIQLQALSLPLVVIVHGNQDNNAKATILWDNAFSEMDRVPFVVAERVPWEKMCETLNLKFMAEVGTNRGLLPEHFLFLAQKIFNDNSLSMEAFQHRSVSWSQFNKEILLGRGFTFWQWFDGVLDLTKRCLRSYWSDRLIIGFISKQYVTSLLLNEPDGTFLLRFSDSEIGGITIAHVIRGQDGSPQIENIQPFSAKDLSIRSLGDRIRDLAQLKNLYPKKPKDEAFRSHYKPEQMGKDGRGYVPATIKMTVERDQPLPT
Procedure, shortened: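 Displacement of a fluorescent phosphotyrosine peptide (2 nM) from 250 nM STAT6 (W123-T658) is measured by polarization after a 45-minute room-temperature incubation. Compounds are titrated serially at 1% DMSO, and IC50 values derive from regression of mP on log concentration.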

[3] = STAT3 (G127-I722) 25 nM, read-out: STAT3 (FP assay IC50 class)
[4] = STAT6 (W123-T658) 250 nM, read-out: STAT6 (FP assay IC50 class)
[5] = STAT3 25 nM, read-out: STAT3 (FP assay IC50)
[6] = STAT6 250 nM, read-out: STAT6 (FP assay IC50)

T1 sequence (P40763 127-722): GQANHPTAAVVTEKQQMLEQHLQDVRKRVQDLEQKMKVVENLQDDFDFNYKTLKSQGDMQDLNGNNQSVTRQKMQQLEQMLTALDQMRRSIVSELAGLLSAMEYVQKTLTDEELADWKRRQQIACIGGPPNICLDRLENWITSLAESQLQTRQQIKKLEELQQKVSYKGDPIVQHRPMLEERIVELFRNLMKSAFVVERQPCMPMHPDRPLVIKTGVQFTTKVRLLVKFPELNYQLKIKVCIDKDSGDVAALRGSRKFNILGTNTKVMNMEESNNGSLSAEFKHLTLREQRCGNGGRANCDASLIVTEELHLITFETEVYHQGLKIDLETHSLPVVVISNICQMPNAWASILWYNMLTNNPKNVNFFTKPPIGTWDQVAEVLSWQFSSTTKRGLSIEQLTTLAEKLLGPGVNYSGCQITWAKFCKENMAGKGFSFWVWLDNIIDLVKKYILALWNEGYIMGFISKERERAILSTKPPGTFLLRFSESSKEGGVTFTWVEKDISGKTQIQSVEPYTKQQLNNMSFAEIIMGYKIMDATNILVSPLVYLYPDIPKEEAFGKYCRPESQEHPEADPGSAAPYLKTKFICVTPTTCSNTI

IC50 [1, 3] | IC50 [2, 4] | IC50 [1, 5] | IC50 [2, 6] | SMILES
1 to 10 µM | 0.3 to 3 µM |  |  | Cn1cc(F)c(N2C(=O)N(C(=O)[C@@H]3CC[C@@H]4CCCC[C@H](NC(=O)c5cc6cc(C(F)P(=O)(O)O)ccc6s5)C(=O)N43)C3(CC3)C2=O)cc1=O (stereo partly drawn) [Compound 581, (fluoro(2-(((3S,6S,10aS)-3-(6-(5-fluoro-1-methyl-2-oxo-1,2-dihydropyridin-4-yl)-5,7-dioxo-4,6-diazaspiro[2.4]heptane-4-carbonyl)-5-oxodecahydropyrrolo[1,2-a]azocin-6-yl)carbamoyl)benzo[b]thiophen-5-yl)methyl)phosphonic acid]
 |  | 0.1 to 1 µM | > 30 µM | O=C(N[C@H]1CCC[C@H]2CC[C@@H](C(=O)N3CC(c4cccnc4)C3)N2C1=O)c1cc2cc(CP(=O)(O)O)ccc2s1 [Compound 78, ((2-(((3S,6S,9aS)-5-oxo-3-(3-(pyridin-3-yl)azetidine-1-carbonyl)octahydro-1H-pyrrolo[1,2-a]azepin-6-yl)carbamoyl)benzo[b]thiophen-5-yl)methyl) phosphonic acid]
1 to 10 µM | 3 to 30 µM |  |  | COC(=O)N1CC(NC(=O)[C@@H]2CC[C@@H]3CCCC[C@H](NC(=O)c4cc5cc(C(F)P(=O)(O)O)ccc5s4)C(=O)N32)C1 (stereo partly drawn) [Compound 523]
1 to 10 µM | 0.3 to 3 µM |  |  | Cn1ncc(C2CCN(C(=O)[C@@H]3CC[C@@H]4CCCC[C@H](NC(=O)c5cc6cc(C(F)P(=O)(O)O)ccc6s5)C(=O)N43)C2)cc1=O (stereo partly drawn) [Compound 913, (fluoro(2-(((3S,6S,10aS)-3-(3-(1-methyl-6-oxo-1,6-dihydropyridazin-4-yl)pyrrolidine-1-carbonyl)-5-oxodecahydropyrrolo [1,2-a]azocin-6-yl)carbamoyl)benzo [b]thiophen-5-yl)methyl) phosphonic acid]
1 to 10 µM | 3 to 30 µM |  |  | Cn1cncc(C2CN(C(=O)[C@@H]3CC[C@@H]4CCC[C@H](NC(=O)c5cc6cc(C(F)P(=O)(O)O)ccc6s5)C(=O)N43)C2)c1=O (stereo partly drawn) [Compound 624, (fluoro(2-(((3S,6S,9aS)-3-(3-(1-methyl-6-oxo-1,6-dihydropyrimidin-5-yl)azetidine-1-carbonyl)-5-oxooctahydro-1H-pyrrolo[1,2-a]azepin-6-yl)carbamoyl)benzo [b]thiophen-5-yl)methyl) phosphonic acid]
0.1 to 1 µM | 3 to 30 µM |  |  | O=C(N[C@H]1CCC[C@H]2CC[C@@H](C(=O)N3CC(c4nccc(C(F)(F)F)n4)C3)N2C1=O)c1cc2cc(C(F)(F)P(=O)(O)O)ccc2s1 [Compound 812, (difluoro(2-(((3S,6S,9aS)-5-oxo-3-(3-(4-(trifluoromethyl)pyrimidin-2-yl)azetidine-1-carbonyl)octahydro-1H-pyrrolo[1,2-a]azepin-6-yl)carbamoyl)benzo [b]thiophen-5-yl)methyl) phosphonic acid]
 |  | 1 to 10 µM | 0.3 to 3 µM | N#C[C@H]1CN(C(=O)[C@@H]2CC[C@@H]3CC[C@@H](N4CCC4)C[C@H](NC(=O)c4cc5cc(C(F)(F)P(=O)(O)O)ccc5s4)C(=O)N32)C[C@@H]1c1ccccc1 (mixture of isomers) [Compound 23, ((2-(((3S,6S,8R,10aS)-8-(azetidin-1-yl)-3-(rel- trans)-3-cyano-4-phenylpyrrolidine-1-carbonyl)-5-oxodecahydropyrrolo [1,2-a]azocin-6-yl)carbamoyl)benzo[b]thiophen-5-yl)difluoromethyl) phosphonic acid]
 |  | 1 to 10 µM | 3 to 30 µM | O=C(N[C@H]1CCCC[C@H]2CC[C@@H](C(=O)N3CCc4c(cc[nH]c4=O)C3)N2C1=O)c1cc2cc(C(F)(F)P(=O)(O)O)ccc2s1 [Compound 48, (difluoro(2-(((3S,6S,10aS)-5-oxo-3-(5-oxo-1,2,3,4,5,6-hexahydro-2,6-naphthyridine-2-carbonyl)decahydropyrrolo [1,2-a]azocin-6-yl)carbamoyl)benzo[b]thiophen-5-yl)methyl) phosphonic acid]
 |  | 1 to 10 µM | ≤ 0.3 µM | O=C(NC1CCCC[C@H]2CC[C@@H](C(=O)N3CC(c4ccccc4)CC34CC4)N2C1=O)c1cc2cc(C(F)(F)P(=O)(O)O)ccc2s1 (stereo partly drawn) [Compound 89, (difluoro(2-(((3S,10aS)-5-oxo-3-(6-phenyl-4-azaspiro[2.4]heptane-4-carbonyl)decahydropyrrolo [1,2-a]azocin-6-yl)carbamoyl)benzo[b]thiophen-5-yl)methyl) phosphonic acid]
< 0.1 µM | 3 to 30 µM |  |  | CS(=O)(=O)CC1CN(C(=O)[C@@H]2CC[C@@H]3CCC[C@H](NC(=O)c4cc5cc(C(F)P(=O)(O)O)ccc5s4)C(=O)N32)C1 (stereo partly drawn) [Compound 627, (fluoro(2-(((3S,6S,9aS)-3-(3-((methylsulfonyl)methyl)azetidine-1-carbonyl)-5-oxooctahydro-1H-pyrrolo[1,2-a]azepin-6-yl)carbamoyl)benzo [b]thiophen-5-yl)methyl) phosphonic acid]
1 to 10 µM | 3 to 30 µM |  |  | COC1(c2cccnc2)CN(C(=O)[C@@H]2CC[C@@H]3CCCC[C@H](NC(=O)c4cc5cc(CP(=O)(O)O)ccc5s4)C(=O)N32)C1 [Compound 651, ((2-(((3S,6S,10aS)-3-(3-methoxy-3-(pyridin-3-yl)azetidine-1-carbonyl)-5-oxodecahydropyrrolo [1,2-a]azocin-6-yl)carbamoyl)benzo [b]thiophen-5-yl)methyl) phosphonic acid]
1 to 10 µM | 3 to 30 µM |  |  | Cc1cccnc1C1CN(C(=O)[C@@H]2CC[C@@H]3CCC[C@H](NC(=O)c4cc5cc(CP(=O)(O)O)ccc5s4)C(=O)N32)C1 [Compound 657, ((2-(((3S,6S,9aS)-3-(3-(3-methylpyridin-2-yl)azetidine-1-carbonyl)-5-oxooctahydro-1H-pyrrolo[1,2-a]azepin-6-yl)carbamoyl)benzo [b]thiophen-5-yl)methyl) phosphonic acid]
1 to 10 µM | 3 to 30 µM |  |  | COc1cc(F)c(C2CN(C(=O)[C@@H]3CC[C@@H]4CCC[C@H](NC(=O)c5cc6cc(CP(=O)(O)O)ccc6s5)C(=O)N43)C2)cn1 [Compound 556, ((2-(((3S,6S,9aS)-3-(3-(4-fluoro-6-methoxypyridin-3-yl)azetidine-1-carbonyl)-5-oxooctahydro-1H-pyrrolo[1,2-a]azepin-6-yl)carbamoyl)benzo[b]thiophen-5-yl)methyl)phosphonic acid]
0.1 to 1 µM | 0.3 to 3 µM |  |  | Cn1cnc2ncc(CNC(=O)[C@@H]3CC[C@@H]4CCC[C@H](NC(=O)c5cc6cc(C(F)(F)P(=O)(O)O)ccc6s5)C(=O)N43)cc21 [Compound 1120, (difluoro(2-(((3S,6S,9aS)-3-(((1-methyl-1H-imidazo[4,5-b]pyridin-6-yl)methyl)carbamoyl)-5-oxooctahydro-1H-pyrrolo[1,2-a]azepin-6-yl)carbamoyl)benzo[b]thiophen-5-yl)methyl)phosphonic acid]
< 0.1 µM | 0.3 to 3 µM |  |  | O=C(N[C@H]1CCC[C@H]2CC[C@@H](C(=O)N3CCN(c4cccnc4)CC34CC4)N2C1=O)c1cc2cc(C(F)(F)P(=O)(O)O)ccc2s1 [Compound 1125, (difluoro(2-(((3S,6S,9aS)-5-oxo-3-(7-(pyridin-3-yl)-4,7-diazaspiro[2.5]octane-4-carbonyl)octahydro-1H-pyrrolo[1,2-a]azepin-6-yl)carbamoyl)benzo[b]thiophen-5-yl)methyl)phosphonic acid]
1 to 10 µM | 3 to 30 µM |  |  | O=C(N[C@H]1CCC[C@H]2CC[C@@H](C(=O)N3CCC(c4cc[nH]n4)CC3)N2C1=O)c1cc2cc(C(F)P(=O)(O)O)ccc2s1 (stereo partly drawn) [Compound 760, ((2-(((3S,6S,9aS)-3-(4-(1H-pyrazol-3-yl)piperidine-1-carbonyl)-5-oxooctahydro-1H-pyrrolo[1,2-a]azepin-6-yl)carbamoyl)benzo [b]thiophen-5-yl)fluoromethyl) phosphonic acid]
1 to 10 µM | 0.3 to 3 µM |  |  | Cc1cc(C2CN(C(=O)[C@@H]3CC[C@@H]4CCCC[C@H](NC(=O)c5cc6cc(C(F)(F)P(=O)(O)O)ccc6s5)C(=O)N43)CC2C#N)cc(=O)[nH]1 (single isomer, unassigned) [Compound 876]
0.1 to 1 µM | 3 to 30 µM |  |  | COc1ccncc1C1CN(C(=O)[C@@H]2CC[C@@H]3CCC[C@H](NC(=O)c4cc5cc(CP(=O)(O)O)ccc5s4)C(=O)N32)C1 [Compound 502, ((2-(((3S,6S,9aS)-3-(3-(4-methoxypyridin-3-yl)azetidine-1-carbonyl)-5-oxooctahydro-1H-pyrrolo[1,2-a]azepin-6-yl)carbamoyl)benzo[b]thiophen-5-yl)methyl)phosphonic acid]

— US20250215029A1 (Recludix Pharma, Inc., priority 2022, published 2025)
